Data taken from patent publication US9938273B2 (Plexxikon Inc., priority 2015, dated 2018).

Experiments:
[1] = target: T1, c-KIT (Homo sapiens, UniProt P10721); test: AlphaScreen kinase assay with recombinant enzyme, c-KIT; assay type: biochemical; conditions: 100ATP, 8pt, GMean
T1 construct: purchased Millipore 14-559K
Summary of the method: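 Read-out: AlphaScreen proximity signal at 580 nm (680 nm excitation), lost as peptide tyrosine phosphorylation falls. Substrate Biotin-GG(EEEEY)10EE at 30 nM; IC50 runs at 10 μM (FLT3 mutants) or 100 μM (c-KIT) final. Donor beads 20 min, then acceptor beads 60 min, room temperature.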

[2] = target: T2, BA/F3-FLT3-ITD + D835Y cells (Homo sapiens, UniProt P36888, D835Y, cells depend on it, form not given); test: Cell proliferation assay (CellTiter-Glo), engineered BA/F3 cells; assay type: cell-based, murine; conditions: BaF3 FLT3 ITD/D835Y cells, 3d-Growth; read-out: BaF3_FLT3 ITD/D835Y 3d-Growth: IC50
T2 sequence (P36888 1-993 D835Y): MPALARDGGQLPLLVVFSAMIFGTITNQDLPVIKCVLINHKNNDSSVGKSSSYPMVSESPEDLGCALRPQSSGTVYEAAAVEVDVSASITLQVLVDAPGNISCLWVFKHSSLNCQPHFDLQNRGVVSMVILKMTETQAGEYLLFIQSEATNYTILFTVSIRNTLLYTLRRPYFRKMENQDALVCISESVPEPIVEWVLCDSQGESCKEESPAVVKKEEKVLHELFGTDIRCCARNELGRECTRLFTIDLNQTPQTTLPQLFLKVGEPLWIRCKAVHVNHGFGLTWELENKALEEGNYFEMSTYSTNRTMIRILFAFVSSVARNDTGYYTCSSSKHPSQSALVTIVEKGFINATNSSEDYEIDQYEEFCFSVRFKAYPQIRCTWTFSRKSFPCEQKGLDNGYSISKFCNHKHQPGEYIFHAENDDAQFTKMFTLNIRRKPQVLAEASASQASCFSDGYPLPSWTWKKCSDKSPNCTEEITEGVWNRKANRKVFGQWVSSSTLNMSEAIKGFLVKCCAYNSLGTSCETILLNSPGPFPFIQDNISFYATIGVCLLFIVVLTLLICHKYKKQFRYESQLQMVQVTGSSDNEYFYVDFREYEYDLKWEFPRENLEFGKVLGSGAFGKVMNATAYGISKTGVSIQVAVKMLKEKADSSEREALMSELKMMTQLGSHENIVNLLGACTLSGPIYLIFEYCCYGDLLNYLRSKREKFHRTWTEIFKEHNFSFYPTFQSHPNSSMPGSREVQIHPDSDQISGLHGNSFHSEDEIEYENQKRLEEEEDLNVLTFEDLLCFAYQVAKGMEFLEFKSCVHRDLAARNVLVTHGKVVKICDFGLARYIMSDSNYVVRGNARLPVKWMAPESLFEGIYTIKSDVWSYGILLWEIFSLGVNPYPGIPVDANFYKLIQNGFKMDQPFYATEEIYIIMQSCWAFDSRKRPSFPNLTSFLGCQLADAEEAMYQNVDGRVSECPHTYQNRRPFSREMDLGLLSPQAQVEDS
Summary of the method: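 Three-day growth at 37 °C, 5% CO2 under compound (1 μM top final, 1:3 dilutions, eight points, 0.2% DMSO), read as ATP luminescence by CellTiter-Glo for IC50. Cells: MOLM-14 with FLT3 ITD plus D835Y or F691L, and IL-3-deprived Ba/F3 transfected with FLT3 ITD/D835Y, 1×10^4 per well.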

T1 sequence (P10721 26-976): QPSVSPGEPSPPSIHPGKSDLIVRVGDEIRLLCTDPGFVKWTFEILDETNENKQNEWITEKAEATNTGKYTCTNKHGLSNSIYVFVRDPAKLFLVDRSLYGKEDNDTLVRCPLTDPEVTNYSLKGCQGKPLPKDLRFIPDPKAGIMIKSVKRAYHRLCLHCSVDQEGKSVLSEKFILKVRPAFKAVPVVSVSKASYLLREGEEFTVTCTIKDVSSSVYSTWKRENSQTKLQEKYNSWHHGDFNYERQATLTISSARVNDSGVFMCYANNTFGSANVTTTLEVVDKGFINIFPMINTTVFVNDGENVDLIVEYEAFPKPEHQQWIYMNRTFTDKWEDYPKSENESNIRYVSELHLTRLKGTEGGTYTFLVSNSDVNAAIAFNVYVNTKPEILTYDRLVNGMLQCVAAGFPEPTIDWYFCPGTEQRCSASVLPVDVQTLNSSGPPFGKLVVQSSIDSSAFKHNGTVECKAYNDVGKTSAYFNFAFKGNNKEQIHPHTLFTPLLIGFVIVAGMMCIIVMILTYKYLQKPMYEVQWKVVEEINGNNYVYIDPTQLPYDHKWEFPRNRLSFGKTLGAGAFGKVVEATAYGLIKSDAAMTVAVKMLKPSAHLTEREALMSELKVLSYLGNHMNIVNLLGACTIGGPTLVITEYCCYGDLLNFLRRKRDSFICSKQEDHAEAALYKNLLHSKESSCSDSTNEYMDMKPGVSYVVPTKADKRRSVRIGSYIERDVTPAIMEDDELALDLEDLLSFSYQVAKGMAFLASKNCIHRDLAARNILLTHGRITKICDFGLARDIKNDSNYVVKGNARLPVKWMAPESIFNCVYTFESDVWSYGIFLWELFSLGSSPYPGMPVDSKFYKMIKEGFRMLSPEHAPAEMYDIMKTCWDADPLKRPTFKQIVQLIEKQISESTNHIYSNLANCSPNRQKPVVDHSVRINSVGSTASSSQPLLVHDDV

`NC1CCN(C(=O)c2n[nH]c3ccc(-c4cnc5[nH]c(C6=CCN(C(=O)C7CC7)C6)cc5c4)cc23)CC1` [Compound P-0074, (4-amino-1-piperidyl)-[5-[2-[1-(cyclopropanecarbonyl)-2,5-dihydropyrrol-3-yl]-1H-pyrrolo[2,3-b]pyridin-5-yl]-1H-indazol-3-yl]methanone] gave an IC50 [1] of 10 to 50 µM and a GI50 [2] of 0.0001 to 10 µM.
`O=C(NC1CCNC1)c1cccc(-c2cnc3[nH]c(-c4ccccc4)cc3c2)n1` (stereo not drawn) [Compound P-0045, 6-(2-phenyl-1H-pyrrolo[2,3-b]pyridin-5-yl)-N-pyrrolidin-3-yl-pyridine-2-carboxamide] was tested, and the IC50 [1] was 0.0001 to 10 µM and the GI50 [2] was 0.0001 to 10 µM.
`N[C@H]1CCN(C(=O)c2cc(-c3cnc4[nH]c(-c5ccccc5)cc4c3)ccn2)C1` [Compound P-0046, [(3S)-3-aminopyrrolidin-1-yl]-[4-(2-phenyl-1H-pyrrolo[2,3-b]pyridin-5-yl)-2-pyridyl]methanone] was tested, and the IC50 [1] was 0.0001 to 10 µM and the GI50 [2] was 0.0001 to 10 µM.
`O=C(c1cccc(-c2cnc3[nH]c(-c4ccccc4)cc3c2)n1)C1CCNCC1` [Compound P-0043, [6-(2-phenyl-1H-pyrrolo[2,3-b]pyridin-5-yl)-2-pyridyl]-(4-piperidyl)methanone] was tested, and the IC50 [1] was 0.0001 to 10 µM and the GI50 [2] was 0.0001 to 10 µM.
`CNC(=O)C1CCN(C(=O)c2cccc(-c3cnc4[nH]c(-c5ccccc5)cc4c3)n2)CC1` [Compound P-0030, N-methyl-1-[6-(2-phenyl-1H-pyrrolo[2,3-b]pyridin-5-yl)pyridine-2-carbonyl]piperidine-4-carboxamide] showed an IC50 [1] of 0.0001 to 10 µM and a GI50 [2] of 0.0001 to 10 µM.
`c1ccc(-c2cc3cc(-c4ccc5[nH]nc(NC6CCNC6)c5c4)cnc3[nH]2)cc1` (stereo not drawn) [Compound P-0059, 5-(2-phenyl-1H-pyrrolo[2,3-b]pyridin-5-yl)-N-pyrrolidin-3-yl-1H-indazol-3-amine] was tested, and the IC50 [1] was 0.0001 to 10 µM and the GI50 [2] was 0.0001 to 10 µM.
For `CCNC(=O)NC1CCN(C(=O)c2cccc(-c3cnc4[nH]c(-c5ccccc5)cc4c3)n2)CC1` [Compound P-0031, 1-ethyl-3-[1-[6-(2-phenyl-1H-pyrrolo[2,3-b]pyridin-5-yl)pyridine-2-carbonyl]-4-piperidyl]urea], the IC50 [1] was 0.0001 to 10 µM and the GI50 [2] was 0.0001 to 10 µM.
In the case of `CNC1CCN(C(=O)c2cccc(-c3cnc4[nH]c(-c5ccccc5)cc4c3)n2)CC1` [Compound P-0041, [4-(methylamino)-1-piperidyl]-[6-(2-phenyl-1H-pyrrolo[2,3-b]pyridin-5-yl)-2-pyridyl]methanone], the IC50 [1] is reported as 0.0001 to 10 µM and the GI50 [2] is reported as 0.0001 to 10 µM.
`N=C(N)N1CCN(C(=O)c2cccc(-c3cnc4[nH]c(-c5ccccc5)cc4c3)n2)CC1` [Compound P-0057, 4-[6-(2-phenyl-1H-pyrrolo[2,3-b]pyridin-5-yl)pyridine-2-carbonyl]piperazine-1-carboxamidine] showed an IC50 [1] of 0.0001 to 10 µM and a GI50 [2] of 0.0001 to 10 µM.
